Among the data in patent US4264498A, “Process for the preparation of 1,3-disubstituted-2-azetidinones from triazines” (Fujisawa Pharmaceutical Co., Ltd., priority 1976, dated 1981) are MIC values, retold here.

A word on the MIC: it is the smallest concentration in the dilution series that meets the test's criterion for growth inhibition. Low values mean a more susceptible organism, high ones a less susceptible organism.

In brackets after ≈: the same amount, converted by molar mass.

Assay type in all cases: cell-based
For one assay, the system named is Staphylococcus aureus. Description: antimicrobial activity (MIC) against Staphylococcus aureus.
The subject of another assay is Pseudomonas aeruginosa. Description: antimicrobial activity (MIC) against Pseudomonas aeruginosa.
A further assay concerns Bacillus subtilis. In words: antimicrobial activity (MIC) against Bacillus subtilis.

The compound `O=C(NC1CN(C(C(=O)O)c2cccc3ccccc23)C1=O)C(=NO)c1ccccc1` (centres unmarked) [Compound E, 2-[3-(2-phenyl-2-hydroxyiminoacetamido)-2-oxo-1-azetidinyl]-2-(1-naphthyl)acetic acid] had a minimum inhibitory concentration (MIC) in the assay with Staphylococcus aureus of 60 µg/mL (≈ 144 µM). The compound `NC(CCOc1ccc(C(=NO)C(=O)NC2CN(C(C(=O)O)c3ccccc3)C2=O)cc1)C(=O)O` (centres unmarked) [Compound B, 2-[3-[2-{4-(3-amino-3-carboxypropoxy)phenyl}-2-hydroxyiminoacetamido]-2-oxo-1-azetidinyl]-2-phenylacetic acid] yielded a minimum inhibitory concentration (MIC) against Pseudomonas aeruginosa of 4 µg/mL (≈ 8.26 µM). On the same count and under the same terms, for `NC(CCOc1ccc(C(=NO)C(=O)NC2CN(C(C(=O)O)c3ccc(O)cc3)C2=O)cc1)C(=O)O` (centres unmarked) [Compound C, 2-[3-[2-{4-(3-amino-3-carboxypropoxy)phenyl}-2-hydroxyiminoacetamido]-2-oxo-1-azetidinyl]-2-(4-hydroxyphenyl)acetic acid] the value was 2.5 µg/mL (≈ 5 µM). Same read-out and setting: with `NC(CCOc1ccc(C(=NO)C(=O)NC2CN(C(C(=O)O)c3cccs3)C2=O)cc1)C(=O)O` (centres unmarked) [Compound G] the figure was 4 µg/mL (≈ 8.16 µM). As for `O=C(NC1CN(C(CSc2ccccc2)C(=O)O)C1=O)C(=NO)c1ccccc1` (centres unmarked) [Compound D, 2-[3-(2-phenyl-2-hydroxyiminoacetamido)-2-oxo-1-azetidinyl]-3-phenylthiopropionic acid], in the assay on Staphylococcus aureus, it took 250 µg/mL (≈ 605 µM) to inhibit growth (MIC). In the assay on Pseudomonas aeruginosa, `O=C(NC1CN(C(C(=O)O)c2ccco2)C1=O)C(=NO)c1ccccc1` (centres unmarked) [Compound H, 2-[3-(2-phenyl-2-hydroxyiminoacetamido)-2-oxo-1-azetidinyl]-2-(2-furyl)acetic acid] gave an MIC of 60 µg/mL (≈ 168 µM). Take `O=C(O)CN1CC(NC(=O)Cc2ccccc2)C1=O` (centres unmarked) [Compound A, 2-(3-phenylacetamido-2-oxo-1-azetidinyl)acetic acid]: the MIC in the assay with Bacillus subtilis is 250 µg/mL (≈ 953 µM). For `O=C(NC1CN(C(Cc2ccc(O)cc2)C(=O)O)C1=O)C(=NO)c1ccccc1` (centres unmarked) [Compound F, 2-[3-(2-phenyl-2-hydroxyiminoacetamido)-2-oxo-1-azetidinyl]-3-(4-hydroxyphenyl)propionic acid], in the assay with Staphylococcus aureus, the lowest concentration to inhibit growth (MIC) was 250 µg/mL (≈ 629 µM).
